Experimental data: publication PMC2717050, “Evaluation of expression and function of the H^+/myo-inositol transporter HMIT” (BMC Cell Biology, 2009)

Experiments:
[1] = biological target: T1, HMIT triple mutant (H+/myo-inositol transporter) (Rattus norvegicus, UniProt Q921A2); test: [3H]-myo-inositol uptake in HEK293T cells; format: cell-based; conditions: pH 6.0; 37 °C pre-incubation 10 min; 2 min uptake; non-selective inhibitor
T1 construct: gene Slc2a13; stop codon deleted, C-terminal V5-His; pcDNA3.1/V5-His-TOPO; transient in HEK293/HEK293T cells
T1 sequence (Q921A2 1-637): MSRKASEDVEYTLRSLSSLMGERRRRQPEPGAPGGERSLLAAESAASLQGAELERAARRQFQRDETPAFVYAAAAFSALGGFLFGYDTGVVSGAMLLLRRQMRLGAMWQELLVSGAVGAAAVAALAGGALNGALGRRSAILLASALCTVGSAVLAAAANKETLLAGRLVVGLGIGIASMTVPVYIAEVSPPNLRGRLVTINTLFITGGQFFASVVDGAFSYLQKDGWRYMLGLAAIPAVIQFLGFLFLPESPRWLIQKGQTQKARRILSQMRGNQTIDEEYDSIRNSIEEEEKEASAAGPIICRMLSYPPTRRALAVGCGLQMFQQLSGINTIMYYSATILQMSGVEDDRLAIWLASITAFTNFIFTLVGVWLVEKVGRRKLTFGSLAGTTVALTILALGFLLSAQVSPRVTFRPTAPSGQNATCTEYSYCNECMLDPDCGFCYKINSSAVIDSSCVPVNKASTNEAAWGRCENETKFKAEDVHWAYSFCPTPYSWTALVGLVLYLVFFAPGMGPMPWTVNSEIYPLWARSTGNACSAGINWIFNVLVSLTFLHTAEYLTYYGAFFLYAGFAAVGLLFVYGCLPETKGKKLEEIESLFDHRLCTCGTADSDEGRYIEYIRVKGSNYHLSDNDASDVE

[2] = biological target: T1, HMIT triple mutant (H+/myo-inositol transporter); test: whole-cell patch-clamp, inositol-evoked inward current; format: cell-based; conditions: extracellular pH 5.2; room temperature; Hill slope 1.0; transiently transfected HEK293/HEK293T cells

Row | % inhibition at 1 mM [1] [%] | EC50 [2] [µM] | SMILES
1 | 53 ± 1.4 | – | O=C(CCc1ccc(O)cc1)c1c(O)cc(O)cc1O[C@@H]1O[C@H](CO)[C@@H](O)[C@H](O)[C@H]1O [phloridzin]
2 | – | 2700 | O[C@H]1[C@H](O)[C@@H](O)[C@H](O)[C@@H](O)[C@H]1O [myo-inositol]
